Experimental data reported in patent US10858305B2, “Perillyl alcohol-3-bromopyruvate conjugate and methods of treating cancer” (NeOnc Technologies, Inc., priority 2016, dated 2020).

Legend:
MDA-MB-231 cells = assay: Colony formation assay in MDA-MB-231 cells; format: cell-based; settings: Homo sapiens; MDA-MB-231, 48 hours drug then 10-14 days; read-out: effective concentration (half-maximal), CFA
Experimental: (A) MTT assay was performed after 24 hours. […] (B) LDH assay was performed after […]. LDH release by untreated cells was set to 1. Relative fold increase is shown (n=3).
(A) MTT assay was performed after 24 hours. Viability of untreated cells was set at 100% (data points are averages of 2 experiments). (B) LDH assay was performed after 24 hours. LDH release by untreated cells was set to 1. Relative fold increase is shown (averages from 2 experiments). (C) Representative photos show typical colony formation after initial 48 hours of drug treatment. In all cases of combination treatment with 3-BP mixed with […] (3-BP+POH), the indicated concentrations refer to each individual drugs, i.e., 100 μM 3-BP+POH means that 100 μM 3-BP was combined with 100 μM POH.
Depending on the cell line (and plating efficiency), 250-800 cells were seeded into each well of a 6-well plate and treated as described in detail previously. After 12-16 days, colonies (defined as groups of >50 cells) were visualized by staining for 4 hours with 1% methylene blue (in methanol), and then were-counted. Experiments were repeated at least once, but usually more often under different conditions.

[1] = tested on: tumor cells (two cell lines, incl. MCF7/Dox); assay: Colony formation assay (CFA), 24 hours drug exposure (FIG. 5); format: cell-based, human; settings: colonies after ten to fifteen days
Experimental: The effect of NEO218 on tumor cell survival and colony formation relative to 3-BP, POH and 3-BP+POH was evaluated via the colony formation assay (CFA). Six hundred cells per culture well were seeded and exposed to increasing concentrations of NEO218, 3-BP, a mix of 3-BP+POH, or POH alone. After 24 hours, all drugs were removed from cells and fresh culture medium was added. Ten to fifteen days later, the surviving cells had formed colonies of descendants, which were stained and counted.

[2] = tested on: MDA-MB-231, T47D, T98G, U251, HCT116 and A2780 cancer cells; assay: MTT assay, cell viability after 48 hours in six cancer cell lines; format: cell-based, human
Description: The tumor cell-killing potency of NEO218 was characterized by in vitro, short-term MTT assays (measuring viability of cells via determination of metabolic activity), LDH assays (measuring the release of lactate dehydrogenase as an indicator of leaky cell membranes, which are indicative of dying cells), and colony-formation assays (CFA, which determine long-term survival of drug-treated cells and their ability to spawn a colony of descendants). Several established cell lines derived from cancers of the breast were used as target cells (including MDA-MB-231; MDA-MB-468; T47D; MCF7; MCF7/Dox; BTB12), brain (T98G; U251), ovary (A2780), and colon (HCT116). In all cases, cells in culture were exposed to increasing concentrations of agents for 24 or 48 hours.
Cell lines from different cancer types were treated with increasing concentrations of 3-bromopyruvate (3-BP) or NEO218. After 48 hours, cell viability was measured by MTT assay. MDA-MB-231 and T47D are breast cancer cells; T98G and U251 are brain cancer (glioblastoma) cells; HCT116 are colon cancer cells; A2780 are ovarian cancer cells.

[3] = tested on: MDA-MB-231 triple-negative breast cancer cells; assay: Subcutaneous MDA-MB-231 xenograft in nude mice; format: in vivo; settings: 5 mg/kg on days 1, 5, 9
Experimental: The anticancer activity of NEO218 in vivo was investigated next. MDA-MB-231 triple-negative breast cancer cells were subcutaneously implanted into 12 nude mice. After two weeks, the animals were separated into 2 groups for treatment with either vehicle (no drug) or NEO218 (5 mg/kg). Then, NEO218 (or vehicle) was administered on days 1, 5, and 9 (3 doses total, 4 days apart). Tumor growth was measured with calipers every 3 days from day 1 (=start of treatment) until day 13 (end of experiment).
The panels show tumor growth over time for each individual animal.

tumor cell lines = assay: cells; format: cell-based, human
Experimental: Different tumor cell lines were treated with 3-BP mixed with POH, and the effects were compared to the effects of NEO218, as well as to 3-BP alone. The cells were treated for 24 hours, and then the MTT assay was conducted to measure cell viability.

## O=C(O)C(=O)CBr [3-BP, 3-bromopyruvate]
MDA-MB-231 cells
  IC50: ~130 µM
[1]
  inhibition of colony formation, comparison: substantially less potent

## C=C(C)[C@@H]1CC=C(COC(=O)C(=O)CBr)CC1 [NEO218, 3-bromo-2-oxo-propionic acid 4-isopropenyl-cyclohex-1-enylmethyl ester]
[2]; Homo sapiens, all six cell lines
  IC50: 15 to 40 µM
[2]; MTT
  cancer cell killing effects compared with 3-BP: more potent cancer cell killing effects than 3-BP in all cell lines
[3]
  organ toxicity or other side effects: organ toxicity or other side effects were not detected
  tolerability in mice: tolerated this compound quite well
  tumor growth compared with vehicle group: slower tumor growth
[3]; day 13, all animals
  tumor volume at the end of the experiment: below 200 cubic millimeters
Tumor cell lines
  cytotoxic potency compared with the other treatments: much more potent than any other treatment
[1]; Homo sapiens, MCF7-DOX, read-out: IC50 (cell survival and colony formation)
  IC50: < 10 µM
